From patent US20110257107A1, “Compounds for Delivering Amino Acids or Peptides with Antioxidant Activity into Mitochondria” (University of Rochester, priority 2006, published 2011)
“Also recorded” adds a separate entry of the source. Where two headings read alike, the source gives them in different places.

Tests used:
spinal cord neurons = assay: H202-induced apoptosis (condensed and fragmented nuclei) in cultured spinal cord neurons; type: cell-based
Experimental: Central to the therapeutic intervention of spinal cord injury is the belief that spinal cord neurons undergo apoptosis and possibly necrosis under oxidative stress. […] In contrast, control neurons show predominantly diffuse nuclear staining. […] This percentage increased to ˜58% for 500 μM H2O2. […] In contrast, immunoreactivity to cytochrome C oxidase (COX), a marker in the inner mitochondrial membrane remained independent of the mitochondrial insults by H202. The differential staining between cytochrome C and COX affords a secondary method to assess whether a given neuron has undergone mitochondrial permeability transition (MPT).

[1] = system: cultured neonatal rat ventricular myocytes; assay: H202-induced depolarization of mitochondrial membrane potential (TMRE) in cardiac myocytes; type: cell-based; details: 50 μM H202; for onset of H202-induced depolarization and loss of TMRE fluorescence: pretreatment 50 μM or 100 μM for 30 minutes
Experimental: TMRE is a lipophilic cation that partitions selectively into the negatively charged mitochondria. Neonatal cultured myocytes (6 days in culture) were loaded with 10 nM TMRE for 60 minutes at 37° C. […] As a control, myocytes were not pretreated with any drug. TMRE was excited at 555 nm and fluorescence emission was detected at 590 nm. Fluorescence images were taken every 2 minutes. At the arrow (FIG. 3), myocytes were subjected to oxidative stress by adding 50 μM H202. Plots were normalized to baseline, and are shown as F/F0, where F is the emitted fluorescence at any given time and F0 is the baseline fluorescence before addition of H202. […] The traces were drawn from the mean values of 7-10 experiments.
TMRE was used as an indicator of mitochondrial membrane potential. The myocytes were pretreated with 50 μM Mito GSH for 30 minutes and then washed to remove the antioxidant from the solution in which myocytes were suspended. In control, myocytes were not pretreated with any drug. TMRE was excited at 555 run and fluorescence emission was detected at 590 nm. Fluorescence images were taken every 2 minutes to avoid photobleaching and phototoxicity. Myocytes were subjected to oxidative stress by adding 50 μM H202.

brain striatal neurons = assay: NMDA-induced depolarization of mitochondrial membrane (TMRE) in striatal neurons; type: cell-based; details: pretreatment 50 μm for 30 minutes; NMDA (100 μM)
Experimental: The effects of mitochondrial-targeted antioxidants upon onset of NMDA (100 μM) induced depolarization of mitochondrial membrane of brain striatal neurons are summarized in Table 1.
Tetramethylrhodamine methyl ester (TMRE) was used as an indicator of mitochondrial membrane potential. […] Control neurons were not pretreated with any drug.

Rat heart mitochondria = details: pretreatment 5 mM for 30 minutes, 5 μM rotenone and 100 μM t-BuOOH
Experimental: Mitochondrial membrane potential was measured by safranine. Safranine is a positively charged dye that accumulates in mitochondria on establishment of an electrical potential across the mitochondrial inner membrane. However, its fluorescence is quenched by its accumulation in mitochondria in response to mitochondrial membrane potential. Rat heart mitochondria (0.2 mg protein/200 μl) were transferred to a well containing 0.3 ml of 150 mM KCl, 5 mM HEPES, 15, μM safranine, 5 mM succinate buffer, 5 μM rotenone and 100 μM t-BuOOH. The mitochondria were placed in a multiplate reader.
Fluorescence measurements were made with excitation and emission wavelengths of 485 and 585 nm, respectively.

rat heart = assay: Post-ischemic recovery in Langendorff perfused rat heart; parameters: species or system Sprague-Dawley rat; details: 50 μM for 10 minutes prior to ischemia
Experimental: Following an equilibration period of approximately 25 minutes, global normothermic ischemia was imposed for 25 minutes, followed by reperfusion for 30 minutes.

C=CC(O)CC(=O)O (centres unmarked) [Compound 3-HP, 3-hydroxy-4-pentenoate]
percentage of cells showing condensed and fragmented nuclei (spinal cord neurons; 3-HP depletion of mitochondrial glutathione prior to 250 μM H202 treatment): 70%

OO [Compound H202, hydrogen peroxide]
neurons with condensed and fragmented nuclei (spinal cord neurons; 250 μM H202): ~42%
neurons with condensed and fragmented nuclei (spinal cord neurons; 500 μM H2O2): ~58%

N[C@@H](CCC(=O)N[C@@H](CS)C(=O)NCC(=O)O)C(=O)O [Glutathione, L-γ-glutamyl-L-cysteinylglycine, reference compound]
time for onset of H202-induced depolarization ([1]; pretreatment 100 μM non-targeted glutathione): did not significantly increase the time for onset of H202-induced depolarization

C[N+](C)(C)CCOC(=O)CNC(=O)[C@H](CS)NC(=O)CC[C@H](N)C(=O)O.[Cl-] [Mito GSH, Glutathione choline ester chloride]
time TMRE fluorescence persisted after H202 treatment ([1]; pretreatment 50 μM for 30 minutes): 50 min
onset of H202-induced depolarization and loss of TMRE fluorescence [1]: delayed onset of H202-induced depolarization and loss of TMRE fluorescence; also recorded: significantly enhanced the time for onset of H202-induced depolarization; also recorded: delay the onset of H202-induced depolarization
time for onset of H202-induced depolarization ([1]; pretreatment 100 μM): 53 ± 3.6 min
Time of Onset of Depolarization (brain striatal neurons): 17.5 ± 2.1 min

CC(=O)N[C@@H](CS)C(=O)OCC[N+](C)(C)C [Mito NAC, N,S-acetyl-L-cysteine choline ester]
onset of H202-induced depolarization and loss of TMRE fluorescence [1]: delayed onset of H202-induced depolarization and loss of fluorescence
onset of H202-induced depolarization and loss of TMRE fluorescence ([1]; listed as mito NAC): delay the onset of H202-induced depolarization
Time of Onset of Depolarization (brain striatal neurons): 20.5 ± 3.6 min

CC(=O)N[C@@H](CS)C(=O)OCC[N+](C)(C)C [N-acetyl cysteine choline ester, N-acetyl-L-cysteine choline ester]
release of intramitochondrial safranine (depolarization of mitochondrial membrane potential) (Rat heart mitochondria; listed as NAC CE): minimize the depolarization of mitochondrial membrane potential

CC(=O)N[C@@H](CS)C(=O)O [N-acetyl cysteine, N-acetyl-L-cysteine]
onset of ischemic contracture (rat heart): appeared to delay the onset of ischemic contracture
Overall recovery of left-ventricular developed pressure (rat heart; 25 minutes ischemia, 30 minutes reperfusion): 15.7%
Time of Onset of Depolarization (brain striatal neurons): 10.5 ± 1.9 min

C[N+](C)(C)CCOC(=O)[C@@H](N)CS.[Cl-] [cysteine choline ester, [2-(2-Amino-3-mercapto-L-propionyloxy)ethyl]trimethylammonium chloride]
release of intramitochondrial safranine (depolarization of mitochondrial membrane potential) (Rat heart mitochondria): diminished the release of intramitochondrial safaranine
release of intramitochondrial safranine (depolarization of mitochondrial membrane potential) (Rat heart mitochondria; listed as CYS CE): minimize the depolarization of mitochondrial membrane potential
